Measured values from publication PMC12494831, “Discovery of new pyridine 3-carboxylic acid-based pharmacophores as dual anti-inflammatory and anti-hyperglycemic agents” (Scientific Reports, 2025).

What was measured:
α-amylase (EC.3.2.1.1) = biological target: T1, α-amylase (EC.3.2.1.1) (Homo sapiens, UniProt P04746); assay: In vitro α-amylase inhibition (starch/DNS, 540 nm); assay type: biochemical; conditions: for IC50: test concentrations 2-10 µg, read-out: α-Amylase IC50±SD (converted)
T1 sequence (P04746 16-511): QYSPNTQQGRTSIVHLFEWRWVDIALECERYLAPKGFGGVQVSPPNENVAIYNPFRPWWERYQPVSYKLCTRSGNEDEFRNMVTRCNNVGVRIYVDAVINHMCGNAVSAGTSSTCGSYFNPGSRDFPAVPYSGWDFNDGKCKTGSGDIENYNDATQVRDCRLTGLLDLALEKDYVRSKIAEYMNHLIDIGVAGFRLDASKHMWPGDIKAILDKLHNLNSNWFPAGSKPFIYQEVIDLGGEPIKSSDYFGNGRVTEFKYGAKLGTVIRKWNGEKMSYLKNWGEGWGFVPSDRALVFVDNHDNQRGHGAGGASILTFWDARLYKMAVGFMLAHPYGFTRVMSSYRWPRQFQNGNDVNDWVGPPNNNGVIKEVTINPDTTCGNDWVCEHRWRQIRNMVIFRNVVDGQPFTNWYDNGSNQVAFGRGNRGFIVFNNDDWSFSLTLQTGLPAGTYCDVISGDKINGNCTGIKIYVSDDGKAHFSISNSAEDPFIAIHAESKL
Protocol: α-Amylase enzyme and other chemical reagents are used for enzyme inhibitory activity. The characterized compounds are diluted in an analytical grad solvent (DMSO) system at 1 mg/mL solution concentration. The activity reaction of the synthesized analogues on the enzyme was treated at final concentrations of 2 to 10 µg. In the interaction between enzyme and compounds, 10 min incubation was maintained before the inhibitory activity started. The enzyme-receptor inhibition efficiency was calculated and compared with the positive control.
Sodium phosphate buffer 0.2 mM (pH 6.9 with 6 × 10^− 4 M NaCl) in 500 µL enzyme solution (0.5 mg/mL) was taken and incubated with test samples (2–10 µg/mL) at room temperature for 10 min. A starch (1%) solution of 500 µL with phosphate buffer was added to all test inhibitor samples; further, the tubes were incubated for 10 min at 28 °C. The reaction test tubes were incubated for another 5 min in the water bath (100 °C) after the addition of the color reagent dinitro salicylic acid and cooled at room temperature until reached. Finally, 10 mL of distilled water was mixed with each test tube, and the colored mixture was measured at a fixed wavelength of 540 nm. The absorbance without sample solution (blank) and control (buffer and standard drug sample) was measured at 540 nm. The α-amylase inhibition efficiency was validated using the following equation:2 [drawing 2]

[1] = DPPH radical scavenging (517 nm); conditions: for IC50: read-out: DPPH IC50±SD
Protocol: (§1) The experimental method principle relies on the degradation of the purple color of the DPPH radical and the blue color reduction of the ABTS cation radical. This is due to consuming the electron or hydrogen radical from the antioxidant (A-H). Both assays were measured at 517 nm and 734 nm, respectively. The distinction of color changes illustrates the potential scavenging activity of the inhibitor molecules in terms of hydrogen-donating proficiency. From this, we can conclude the anti-oxidant efficacy.
Methanolic DPPH solution (0.15 mM) was prepared, and 1.0 mL of DPPH solution was mixed with 3.0 mL of synthesized molecules at different concentrations (20 µM to 100 µM). The mixture was constantly swirled and stored RT for 30 min, followed by absorbance measurement at 517 nm.

[2] = ABTS cation radical scavenging (734 nm); conditions: for IC50: read-out: ABTS IC50±SD
Protocol: as §1
In brief, 7.0 mM ABTS in H2O and 2.5 mM potassium persulfate (1:1) were shaken well to generate ABTS cation radicals and kept in the dark at RT for 15–20 h before it is used for the experiment. After, the radical was mixed with the synthesized molecules at different concentrations (20 µM to 100 µM). The resultant solution was measured for absorbance at 734 nm. Ascorbic acid is the positive control for this experiment.1 [drawing 1]

human RBC = assay: Anti-inflammatory activity: hypotonic solution-induced human RBC hemolysis (560 nm); assay type: cell-based; conditions: for IC50: induced human RBC hemolysis, read-out: Inflammatory IC50±SD
Protocol: All synthesized compounds are validated in human RBC (blood sample); the blood sample was collected from a healthy volunteer in an EDTA tube. The EDTA tube further proceeded with centrifugation at 3000 rpm for 30 min. A supernatant (which contains plasma and leucocytes) solution was isolated, and the obtained RBC (red blood cells) was further treated with Alsever’s reagent. Alsever’s reagent was prepared as follows: sodium citrate (0.8 g, 2.6 mmol), dextrose (2 g, 11.0 mmol), citric acid (0.050 g, […]), and sodium chloride (0.42 g, 7.0 mmol) were solubilized in 100 mL of distilled water. The above mixture was centrifuged for 30 min at 3000 rpm. Then, colloidal blood cells were separated, carefully transferred, and washed with 0.85% of the isosaline solution; this process continued until a clear solution appeared. Employing coagulated RBC and generated human erythrocyte hemolysis, the anti-inflammatory activity and potential of the synthesized entities were evaluated. The tested compounds are prepared at different concentrations for the inhibition activity of inflammation, along with 100 µL of a purified RBC sample utilized. All characterized samples were followed by adding 5.0 mL of trisodium phosphate (10 mM) and 5.0 mL of sodium chloride (5.0 mM) buffer solutions. After the addition of the above mixtures, the test samples are incubated for 15 min at room temperature with RBC and hypotonic mixtures. After incubation, the mixture was centrifuged at 3000 rpm for 15 min. The final supernatant liquid solution was measured at 560 nm using a UV-visible spectrophotometer.3 [drawing 3]

Row | α-Amylase Inhibition % (α-amylase (EC.3.2.1.1); 2 µg) [%] | α-Amylase Inhibition % (α-amylase (EC.3.2.1.1); 4 µg) [%] | IC50 [1] [µM] | IC50 [2] [µM] | SMILES | DPPH Inhibition % ([1]; 20 µM) [%] | DPPH Inhibition % ([1]; 40 µM) [%] | DPPH Inhibition % ([1]; 60 µM) [%] | DPPH Inhibition % ([1]; 80 µM) [%] | DPPH Inhibition % ([1]; 100 µM) [%] | ABTS Inhibition % ([2]; 20 µM) [%] | ABTS Inhibition % ([2]; 40 µM) [%] | ABTS Inhibition % ([2]; 60 µM) [%] | ABTS Inhibition % ([2]; 80 µM) [%] | ABTS Inhibition % ([2]; 100 µM) [%] | inhibition at 20 µM (human RBC) [%] | inhibition at 40 µM (human RBC) [%] | inhibition at 60 µM (human RBC) [%] | inhibition at 80 µM (human RBC) [%] | inhibition at 100 µM (human RBC) [%] | IC50 (human RBC) [µM] | further results
1 | – | – | 32.02 ± 0.26 | 21.57 ± 0.11 | COC(=O)C=Cc1cc(OC)c(OC(=O)c2cccnc2)c(OC)c1 [Compound 2d, 2,6-dimethoxy-4-(3-methoxy-3-oxoprop-1-en-1-yl)phenyl nicotinate] | 36.2 | 56.3 | 80.5 | 87.4 | 88.3 | 56.9 | 59.6 | 62.5 | 62.6 | 63.2 | 59 | 62 | 65.4 | 75.2 | 84.4 | 20.2 ± 0.26 | –
2 | 79.2 | 77.89 | 78.05 ± 0.08 | 81.05 ± 0.22 | COC(=O)C=Cc1cccc(OC(=O)c2cccnc2)c1 [Compound 2f, 3-(3-Methoxy-3-oxoprop-1-en-1-yl)-phenyl nicotinate] | 35.31 | 38.4 | 41.11 | 43.18 | 45.7 | 27.6 | 33.8 | 41.5 | 52 | 60.1 | 31 | 37 | 42 | 45.6 | 49 | 65.24 ± 0.18 | α-Amylase Inhibition % (α-amylase (EC.3.2.1.1); 6 µg): 56.22%; α-Amylase Inhibition % (α-amylase (EC.3.2.1.1); 8 µg): 47.87%; α-Amylase Inhibition % (α-amylase (EC.3.2.1.1); 10 µg): 36.74%; IC50 (α-amylase (EC.3.2.1.1)): 4.71 µM
3 | 80.38 | 73.64 | 81.81 ± 0.01 | 21.85 ± 0.21 | COC(=O)C=Cc1ccccc1OC(=O)c1cccnc1 [Compound 2g, 2-(3-Methoxy-3-oxoprop-1-en-1-yl)phenyl nicotinate] | 34.94 | 44.35 | 46.41 | 50.02 | 61.07 | 56 | 57 | 58.1 | 60.2 | 62 | 79 | 80.2 | 80.3 | 85.6 | 86 | 85.56 ± 0.25 | α-Amylase Inhibition % (α-amylase (EC.3.2.1.1); 6 µg): 73.06%; α-Amylase Inhibition % (α-amylase (EC.3.2.1.1); 8 µg): 40.84%; α-Amylase Inhibition % (α-amylase (EC.3.2.1.1); 10 µg): 29.72%; IC50 (α-amylase (EC.3.2.1.1)): 4.79 µM
4 | 74.08 | 73.2 | 12.9 ± 0.19 | 16.4 ± 0.25 | O=C(Oc1ccc2c(c1)OCO2)c1cccnc1 [Compound 2h, Benzo[1,3]dioxol-5-yl nicotinate] | 84.5 | 85.8 | 86.8 | 87.2 | 87.68 | 69 | 71 | 72 | 72.9 | 76.7 | 52 | 63 | 64.7 | 65 | 70 | 21.7 ± 0.24 | α-Amylase Inhibition % (α-amylase (EC.3.2.1.1); 6 µg): 72.47%; α-Amylase Inhibition % (α-amylase (EC.3.2.1.1); 8 µg): 70.57%; α-Amylase Inhibition % (α-amylase (EC.3.2.1.1); 10 µg): 70.13%; IC50 (α-amylase (EC.3.2.1.1)): 6.23 µM
5 | 77.74 | 76.42 | 99.62 ± 0.15 | 38.43 ± 0.21 | COc1cc(C(C)=O)ccc1OC(=O)c1cccnc1 [Compound 2i, 4-Acetyl-2-methoxyphenyl nicotinate] | 8.89 | 33.34 | 40.65 | 49.83 | 52.22 | 41.6 | 44.7 | 49.5 | 53.9 | 60.4 | 17.6 | 25.3 | 47 | 58 | 70 | 66.97 ± 0.28 | α-Amylase Inhibition % (α-amylase (EC.3.2.1.1); 6 µg): 74.67%; α-Amylase Inhibition % (α-amylase (EC.3.2.1.1); 8 µg): 71.01%; α-Amylase Inhibition % (α-amylase (EC.3.2.1.1); 10 µg): 70.86%; IC50 (α-amylase (EC.3.2.1.1)): 5.25 µM
6 | 85.94 | 75.4 | 97.62 ± 0.24 | 57.25 ± 0.11 | O=C(Nc1ccc2c(c1)OCO2)c1cccnc1 [Compound 2j, N-(Benzo[1,3]dioxol-5-yl)nicotinamide] | 34.8 | 37.7 | 43.7 | 46 | 50.1 | 28.3 | 39 | 42.4 | 45 | 47.9 | 59 | 68 | 75 | 92.7 | 93 | 20.3 ± 0.22 | α-Amylase Inhibition % (α-amylase (EC.3.2.1.1); 6 µg): 74.67%; α-Amylase Inhibition % (α-amylase (EC.3.2.1.1); 8 µg): 68.96%; α-Amylase Inhibition % (α-amylase (EC.3.2.1.1); 10 µg): 57.1%; IC50 (α-amylase (EC.3.2.1.1)): 5.47 µM

More lines, now with the values behind:

Row | SMILES | α-Amylase Inhibition % (α-amylase (EC.3.2.1.1); 2 µg) [%] | α-Amylase Inhibition % (α-amylase (EC.3.2.1.1); 4 µg) [%] | IC50 [1] [µM] | IC50 [2] [µM] | DPPH Inhibition % ([1]; 20 µM) [%] | DPPH Inhibition % ([1]; 40 µM) [%] | DPPH Inhibition % ([1]; 60 µM) [%] | DPPH Inhibition % ([1]; 80 µM) [%] | DPPH Inhibition % ([1]; 100 µM) [%] | ABTS Inhibition % ([2]; 20 µM) [%] | ABTS Inhibition % ([2]; 40 µM) [%] | ABTS Inhibition % ([2]; 60 µM) [%] | ABTS Inhibition % ([2]; 80 µM) [%] | ABTS Inhibition % ([2]; 100 µM) [%] | inhibition at 20 µM (human RBC) [%] | inhibition at 40 µM (human RBC) [%] | inhibition at 60 µM (human RBC) [%] | inhibition at 80 µM (human RBC) [%] | inhibition at 100 µM (human RBC) [%] | IC50 (human RBC) [µM] | further results
7 | C[C@H]1O[C@H](O[C@H]2[C@H](O)[C@@H](O)[C@@H](O[C@H]3[C@H](O)[C@@H](O)C(O)O[C@@H]3CO)O[C@@H]2CO)[C@H](O)[C@@H](O)[C@@H]1N[C@H]1C=C(CO)[C@@H](O)[C@H](O)[C@H]1O (some centres unmarked) [Acarbose, reference compound] | 85.59 | 83.98 | – | – | – | – | – | – | – | – | – | – | – | – | – | – | – | – | – | – | α-Amylase Inhibition % (α-amylase (EC.3.2.1.1); 6 µg): 82.19%; α-Amylase Inhibition % (α-amylase (EC.3.2.1.1); 8 µg): 80.97%; α-Amylase Inhibition % (α-amylase (EC.3.2.1.1); 10 µg): 80.38%
8 | O=C1O[C@H]([C@@H](O)CO)C(O)=C1O [Ascorbic acid, reference compound] | – | – | 11.81 ± 0.04 | 11.9 ± 0.01 | 91 | 91.8 | 93.7 | 94.3 | 96.1 | 90 | 93 | 95 | 96 | 96.5 | – | – | – | – | – | – | –
9 | O=C(c1ccccc1)c1ccc2n1CCC2C(=O)O (centres unmarked) [Ketorolac, reference compound] | – | – | – | – | – | – | – | – | – | – | – | – | – | – | 91 | 92 | 93 | 93.5 | 94 | 11.8 ± 0.17 | –
